Key:
[1] = Spectral shift of ICG aqueous solutions before and after heating (J-aggregate formation and suppression); format: physicochemical
Experimental: FIG. 4 and FIG. 5 show the results of wavelength shifts based on additive concentration series. […] The axis of abscissa of each square indicates a wavelength, and values at its left and right ends are 500 nm and 950 nm, respectively, and the axis of ordinate thereof indicates an absorbance and its scale is arbitrary. The additive in this case refers to urea.
A third square from the left end corresponds to a solution to which the additive is added at a concentration one-half as high as that of the second square.
A second square from the left end corresponds to a 1.5 mM ICG aqueous solution, and an upper stage and a lower stage show spectra before and after the heating, respectively. A third square corresponds to an ICG aqueous solution having a concentration one-half as high as that of the second square.

[2] = tested on: mouse; settings: intravenous injection; cited from earlier work
[3] = tested on: rat; assay: Urea 50% lethal dose LD50, oral
[4] = tested on: rat; settings: intravenous injection; cited from earlier work
[5] = Water solubility of urea; format: physicochemical; settings: calculated from water solubility and molecular weight 60.06
[6] = tested on: rat; settings: oral; cited from earlier work

J-aggregate formation of ICG in citric acid after heating ([1]; 1.5 mM ICG, citric acid 100 mM or less, free of urea, 60° C. for 30 minutes)	citric acid concentration above which agglomeration precipitation occurs ([1]; 1.5 mM ICG, free of urea, 60° C. for 30 minutes)	SMILES	LD50 [2]	ratio of urea amount in 10 ml of injection at 10 M to LD50 in terms of a body weight of 50 kg ([3]; 6.006 g/425 g)	50% lethal dose converted in terms of a body weight of 50 kg ([3]; 8.5 g/kg × 50 kg)	LD50 [4]	J-aggregation of ICG after heating with urea added ([1]; 1.5 mM ICG aqueous solution + 100 mM urea, heating at 60° C. for 30 minutes)	formation of the H-aggregate of ICG (absorption around 700 nm) with urea added ([1]; 1.5 mM ICG, urea added)	amount of urea that dissolves (molar) [5]	50% lethal dose LD50 [6]
a J-aggregate is formed	higher than 12.5 mM	O=C(O)CC(O)(CC(=O)O)C(=O)O [citric acid]	–	–	–	–	–	–	–	–
–	–	NC(N)=O [urea]	around 5,000 mg/kg	1.41×10^−2	425 g	around 5,000 mg/kg	the J-aggregation is suppressed	suppresses the formation of the H-aggregate	up to 17.9 M	8,500 mg/kg
